# Measurements as given in ChEMBL document CHEMBL5726535, “Use of agonists of formyl peptide receptor 2 for treating ocular inflammatory diseases” (2019).
# Molecular target: T1, N-formyl peptide receptor 2 (Homo sapiens, UniProt P25090)
# T1 sequence (P25090 whole entry): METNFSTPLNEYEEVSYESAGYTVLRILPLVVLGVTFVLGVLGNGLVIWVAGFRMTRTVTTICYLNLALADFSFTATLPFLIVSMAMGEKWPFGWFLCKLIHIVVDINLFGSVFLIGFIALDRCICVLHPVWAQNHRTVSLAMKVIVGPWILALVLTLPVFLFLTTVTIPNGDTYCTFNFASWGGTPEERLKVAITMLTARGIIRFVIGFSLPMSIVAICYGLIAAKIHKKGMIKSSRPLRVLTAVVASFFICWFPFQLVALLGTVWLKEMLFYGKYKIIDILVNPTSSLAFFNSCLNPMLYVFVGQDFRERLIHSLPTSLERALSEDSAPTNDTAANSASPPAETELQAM
# Experiment: FLIPR: HEK-Gα16 cells stably expressing the human FPR2 receptor was utilized. Cells were plated into 384-well poly-D-lysine coated plates at a density of 18,000 cells per well one day prior to use. The growth media was DMEM medium supplemented with 10% fetal bovine serum (FBS), 1% antibiotic-antimycotic, 50 μg/ml hygromycin, and 400 μg/ml geneticin. On the day of the experiment, the cells were …
# Description: FLIPR: HEK-Gα16 cells stably expressing the human FPR2 receptor was utilized. Cells were plated into 384-well poly-D-lysine coated plates at a density of 18,000 cells per well one day prior to use. The growth media was DMEM medium supplemented with 10% fetal bovine serum (FBS), 1% antibiotic-antimycotic, 50 μg/ml hygromycin, and 400 μg/ml geneticin. On the day of the experiment, the cells were washed twice with Hank's Balanced Salt Solution supplemented with 20 mM HEPES (HBSS/hepes buffer). The cells were then dye loaded with 2 μM Fluo-4 diluted in the HBSS/Hepes buffer and incubated at 37° C. for 40 minutes. Extracellular dye was removed by washing the cell plates four times prior to placing the plates in the FLIPR (Fluorometric Imaging Plate Reader, Molecular Devices). Ligands were diluted in HBSS/Hepes buffer and prepared in 384-well microplates.
smiles,measurement,value
"NC(=O)C1C(C(=O)Nc2ccc(Br)cc2)C2CCC1C21CC1 (single isomer, unassigned)",EC50,< 1 nM
